# Assays:
# galectin-3 = galectin-3 (Homo sapiens, UniProt P17931)
# [1] = half-life by route of administration; assay type: in vivo; conditions: mice
# [2] = system: bleomycin induced lung fibrosis; assay: Model of bleomycin-induced lung fibrosis; assay type: in vivo, mouse; conditions: female C57/Bl6 mice, intratracheal on days 18, 20, 22 and 24, lungs harvested day 26
# Method: Female C57/Bl6 mice (10-14 weeks old) were anaesthetized with halothane, and bleomycin or saline was administered intratracheally (33 μg in 50 μl of saline) and lungs were harvested on day 26. TD139 was instilled into the lungs of mice on days 18, 20, 22 and 24 of bleomycin induced lung injury. Fibrosis was assessed by histological score of collagen stained lung sections and by total collagen content by Sircol assay.
# Mice were treated with bleomycin (bleo) or saline (control) and bleomycin treated mice were treated with 200 mg/kg pirfenidone twice daily on days 18-24. TD139 was administered intratracheally on days 18, 20, 22 and 24. Lungs were harvested on day 26.
# Histological lung inflammation and fibrosis score were carried out in Masson's trichrome stained sections. Inflammation (peribronchiolar, perivascular, and alveolar wall thickness) scored in >5 random fields at magnification×630 using the following system (peribronchiolar and perivascular, 1=no cells, 2=<20 cells, 3=20-100 cells, 4=>100 cells; alveolar wall thickness, 1=no cells, 2=2-3 cells thick, 3=4-5 cells thick, 4=>5 cells thick). The combined inflammatory score was the sum of these scores. Fibrosis score was evaluated as the area of the section positively stained for collagen (1=none, 2=<10%, 3=<50%, 4=>50%). Only fields where the majority of the field was composed of alveoli were scored. […]
# β-catenin activation = assay: TGF-β1-induced β-catenin activation in primary alveolar epithelial cells (western blot); assay type: cell-based, mouse; conditions: primary alveolar epithelial cells from WT mice, TGF-β1, 10 μM TD139
# Method: Primary alveolar epithelial cells from WT mice were plated and treated with TGF-β1 in the presence or absence of 10 μM TD139. FIG. 1D) Cells were lysed and analyzed for active β-catenin, total β-catenin and β-actin by western blot.
# Treated and control mouse type II lung alveolar epithelial cells (AECs) were extracted following a standard method. Briefly, 1 ml of 50 U/ml dispase (BD Biosciences) was administered intratracheally into perfused lungs followed by instillation of 0.5 ml of 1% low melting point agarose. The agarose within the upper airways was allowed to set on ice for 2 minutes and the lungs were placed in 4 ml 50 U/ml dispase for 45 min at room temperature. The lung lobes minus the upper airways were then dispersed in DMEM containing 50 μg/ml DNAse I (Sigma-Aldrich, UK). The cell suspension was passed through a 100 μm cell strainer and the cells washed in DMEM followed by resuspension in DMEM containing 10% FCS. The cell suspension was plated onto tissue culture plastic for 1 h to allow any contaminated fibroblasts and macrophages to adhere. Non-adherent epithelial cells were counted and cultured for 2 days on tissue culture plastic or cover-slips pre-coated with 5 μg/ml collagen (AMS Biotechnology) and 10 μg/ml fibronectin (Sigma-Aldrich), Cells were washed three times in PBS before treatment. […]
# Sequence of galectin-3 (P17931 whole entry): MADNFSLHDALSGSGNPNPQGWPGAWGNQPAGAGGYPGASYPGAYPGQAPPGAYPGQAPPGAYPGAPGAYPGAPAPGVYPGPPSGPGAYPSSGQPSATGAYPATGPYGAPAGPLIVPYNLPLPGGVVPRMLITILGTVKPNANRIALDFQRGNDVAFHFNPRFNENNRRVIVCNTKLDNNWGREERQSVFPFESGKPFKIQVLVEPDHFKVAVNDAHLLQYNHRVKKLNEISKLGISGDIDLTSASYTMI
structure (smiles),measurement,setting,value
"OC[C@H]1O[C@@H](S[C@@H]2O[C@H](CO)[C@H](O)[C@H](n3cc(-c4cccc(F)c4)nn3)[C@H]2O)[C@H](O)[C@@H](n2cc(-c3cccc(F)c3)nn2)[C@H]1O [TD139, Bis-{3-deoxy-3-[4-(3-fluorophenyl)-1H-1,2,3-triazol-1-yl]-β-D-galactopyranosyl}sulfane]",galectin-3 inhibitor,galectin-3,inhibitor
same,"half-life, pulmonary route compared with i.v. or s.c. routes",[1],considerably longer half-life
same,bleomycin induced lung fibrosis in vivo,[2],blocked
same,TGF-β-induced β-catenin activation in vitro,β-catenin activation,blocked

# — patent publication US9243021B2, “Galactoside inhibitor of galectins” (University of Edinburgh, priority 2012, dated 2016)
